Test results published in ChEMBL document CHEMBL4715905, “Solution Conformations Shed Light on PROTAC Cell Permeability” (ACS Med Chem Lett, 2021).
Converted amounts (≈) assume the structure as drawn.

What was measured:
[1] = target: Mitogen-activated protein kinase 7 (Homo sapiens, UniProt Q13164); test: Inhibition of recombinant human GST-tagged ERK5 (1 to 398 assessed as phosphorylated peptide substrate incubated for 60 mins by TR-FRET based biochemical assay
[2] = Lipophilicity, logD of compound at pH 7.5; format: physicochemical; conditions: buffer
[3] = Solubility of compound in PBS buffer at pH 6.5; format: physicochemical

Mitogen-activated protein kinase 7, sequence (Q13164 whole entry): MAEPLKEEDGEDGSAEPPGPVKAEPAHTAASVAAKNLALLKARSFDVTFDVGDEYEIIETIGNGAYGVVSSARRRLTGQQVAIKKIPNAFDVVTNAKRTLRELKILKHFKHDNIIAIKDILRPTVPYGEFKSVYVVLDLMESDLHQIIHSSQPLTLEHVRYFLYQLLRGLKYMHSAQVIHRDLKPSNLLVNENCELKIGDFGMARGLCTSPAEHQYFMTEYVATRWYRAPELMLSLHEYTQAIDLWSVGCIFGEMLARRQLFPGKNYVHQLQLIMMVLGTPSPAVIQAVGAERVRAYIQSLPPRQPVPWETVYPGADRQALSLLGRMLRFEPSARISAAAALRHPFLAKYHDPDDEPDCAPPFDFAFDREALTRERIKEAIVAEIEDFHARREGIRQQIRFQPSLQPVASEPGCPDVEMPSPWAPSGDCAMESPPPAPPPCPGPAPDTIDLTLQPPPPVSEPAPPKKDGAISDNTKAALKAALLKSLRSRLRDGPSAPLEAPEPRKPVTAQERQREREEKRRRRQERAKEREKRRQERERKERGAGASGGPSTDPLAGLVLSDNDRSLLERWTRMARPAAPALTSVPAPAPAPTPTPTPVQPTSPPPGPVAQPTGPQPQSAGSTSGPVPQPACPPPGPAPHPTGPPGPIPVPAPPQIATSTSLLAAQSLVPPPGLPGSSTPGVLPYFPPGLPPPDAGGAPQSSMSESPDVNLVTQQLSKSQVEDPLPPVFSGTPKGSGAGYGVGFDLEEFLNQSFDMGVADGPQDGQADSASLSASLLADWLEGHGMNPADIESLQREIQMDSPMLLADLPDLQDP

IC50 [1]: 1.23 µM
logD [2]: 2.68
solubility [3]: 7 µg/mL (≈ 6.77 µM)
SMILES: Cc1ncsc1-c1ccc(CNC(=O)[C@@H]2C[C@@H](O)CN2C(=O)[C@@H](NC(=O)COCCOCCNC(=O)COc2cnc3c(C4CCN(C(=O)c5ccc(OC(F)(F)F)cc5)CC4)ncnc3c2)C(C)(C)C)cc1
